Experimental data as given in patent US20260207654A1, “HEPARAN SULFATE AND ITS MIMETICS AS CHEMOKINE INHIBITORS” (INDIAN INSTITUTE OF SCIENCE EDUCATION AND RESEARCH, priority 2021, published 2026).

What was measured:
CXCL8 [1] = molecular target: T1, CXCL8 (Homo sapiens, UniProt P10145); assay: Chemokine glycan microarray binding assay; conditions: maximum RFU set as 100% binding, average across 2 glycan concentrations and 3 chemokine dilutions (n=6)
T1 sequence (P10145 21-99): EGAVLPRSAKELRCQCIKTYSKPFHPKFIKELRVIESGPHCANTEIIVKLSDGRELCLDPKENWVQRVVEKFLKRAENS
In short: (§1)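 Read-out is Cy3 fluorescence (RFU) of chemokine bound to covalently arrayed glycans, converted to rank against the block's maximum signal and averaged over three chemokine dilutions. Binding ran 2 h at room temperature in PBS pH 7.3 containing 1% ovalbumin; detection used a biotinylated secondary antibody and Cy3-streptavidin.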

CCL5 [2] = molecular target: T2, CCL5 (Homo sapiens, UniProt P13501); assay: Chemokine glycan microarray binding assay; conditions: maximum RFU set as 100% binding, average across 2 glycan concentrations and 3 chemokine dilutions (n=6)
T2 sequence (P13501 24-91): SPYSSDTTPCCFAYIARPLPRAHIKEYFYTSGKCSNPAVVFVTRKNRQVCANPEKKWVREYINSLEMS
In short: as §1

CCL28 = molecular target: T3, CCL28 (Homo sapiens, UniProt Q9NRJ3); assay: Chemokine glycan microarray binding assay; conditions: maximum RFU set as 100% binding, average across 2 glycan concentrations and 3 chemokine dilutions (n=6)
T3 sequence (Q9NRJ3 20-127): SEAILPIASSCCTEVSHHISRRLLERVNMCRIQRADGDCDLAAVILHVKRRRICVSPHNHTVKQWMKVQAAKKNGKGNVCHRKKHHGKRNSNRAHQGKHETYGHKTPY
In short: as §1

CXCL10 [3] = molecular target: T4, CXCL10 (Homo sapiens, UniProt P02778); assay: Chemokine glycan microarray binding assay; conditions: maximum RFU set as 100% binding, average across 2 glycan concentrations and 3 chemokine dilutions (n=6)
T4 sequence (P02778 22-98): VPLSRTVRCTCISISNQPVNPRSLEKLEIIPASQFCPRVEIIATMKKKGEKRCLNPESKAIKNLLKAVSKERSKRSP
In short: as §1

CXCL12 [4] = molecular target: T5, CXCL12 (Homo sapiens, UniProt P48061); assay: Chemokine glycan microarray binding assay; conditions: maximum RFU set as 100% binding, average across 2 glycan concentrations and 3 chemokine dilutions (n=6)
T5 sequence (P48061 22-93, species assumed): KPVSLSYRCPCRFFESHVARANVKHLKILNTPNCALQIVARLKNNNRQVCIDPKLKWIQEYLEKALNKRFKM
In short: as §1

CCL7 [5] = molecular target: T6, CCL7 (Homo sapiens, UniProt P80098); assay: Chemokine glycan microarray binding assay; conditions: maximum RFU set as 100% binding, average across 2 glycan concentrations and 3 chemokine dilutions (n=6)
T6 sequence (P80098 24-99, species assumed): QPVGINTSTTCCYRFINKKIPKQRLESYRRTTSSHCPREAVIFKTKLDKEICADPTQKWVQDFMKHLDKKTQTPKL
In short: as §1

CCL13 = CCL13 (Homo sapiens, UniProt Q99616); assay: Chemokine glycan microarray binding assay; conditions: maximum RFU set as 100% binding, average across 2 glycan concentrations and 3 chemokine dilutions (n=6)
CCL13, sequence (Q99616 17-98, species assumed): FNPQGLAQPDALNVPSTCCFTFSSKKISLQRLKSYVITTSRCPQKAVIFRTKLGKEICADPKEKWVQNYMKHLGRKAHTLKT
In short: as §1

CCL21 = molecular target: T7, CCL21 (Homo sapiens, UniProt O00585); assay: Chemokine glycan microarray binding assay; conditions: maximum RFU set as 100% binding, average across 2 glycan concentrations and 3 chemokine dilutions (n=6)
T7 sequence (O00585 24-134): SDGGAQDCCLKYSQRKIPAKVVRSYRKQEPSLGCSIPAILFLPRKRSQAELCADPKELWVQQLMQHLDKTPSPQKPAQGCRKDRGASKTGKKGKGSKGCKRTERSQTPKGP
In short: as §1

CCL2 [6] = molecular target: T8, CCL2 (Homo sapiens, UniProt P13500); assay: Chemokine glycan microarray binding assay; conditions: maximum RFU set as 100% binding, average across 2 glycan concentrations and 3 chemokine dilutions (n=6)
T8 sequence (P13500 24-99, species assumed): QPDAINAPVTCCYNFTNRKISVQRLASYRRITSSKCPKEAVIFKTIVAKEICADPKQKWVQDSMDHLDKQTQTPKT
In short: as §1

CXCL8 [7] = molecular target: T1, CXCL8; assay: Surface Plasmon Resonance (SPR) binding kinetics; conditions: compound immobilized on CM5 chip, 25° C., 1:1 model
Description: (§2) FIG. 1: SPR analysis of chemokines binding profile for the compounds of present invention: SPR binding analysis of the interaction between the examples 12, 17, and 19, chemokines were reported, Concentrations of chemokines were 0.05-2 μM. A global fit according to a 1:1 binding model was applied (black curves).
(§3) Surface Plasmon Resonance (SPR) binding kinetics The compound of present invention (test compound, Example 12) was covalently immobilized on sensor chip via coupling reaction. At first, the dextran matrix on CM5 chip was activated with NHS (0.02 M) and EDC coupling reagent (0.2 M) at a flow rate of 5 μL min^−1 for 15 min before activating with 50 μL of test compound (0.5 mM) in HBS-EP buffer. In the negative control cell after EDC and NHS activation, 0.5 mM of ethanol amine solution was flowed. The positive RU response on test compound confirmed immobilization of the HS ligand on CM5 chips. Then, different chemokines at a flow rate of 50 μL/min and 25° C. in HBS-EP buffer without growth factor was then flowed over the sensor surface for 3 min to enable association/dissociation. Kinetic analysis was performed using the BIA evaluation software for T100. Association and dissociation phase data were globally fitted to a simple 1:1 interaction model.
(§4) Table 2: SPR analysis of kinetic rate constants and equilibrium affinities of compounds of present invention binding to chemokines
as §3, with “The” for “Surface Plasmon Resonance (SPR) binding kinetics The”, “12, 17 & 18)” for “12)”

CCL5 [8] = molecular target: T2, CCL5; assay: Surface Plasmon Resonance (SPR) binding kinetics; conditions: compound immobilized on CM5 chip, 25° C., 1:1 model
Description: as §2, §3, §4
as §3, with “The” for “Surface Plasmon Resonance (SPR) binding kinetics The”, “12, 17 & 18)” for “12)”

CXCL10 [9] = molecular target: T4, CXCL10; assay: Surface Plasmon Resonance (SPR) binding kinetics; conditions: compound immobilized on CM5 chip, 25° C., 1:1 model
Description: as §2, §3, §4
as §3, with “The” for “Surface Plasmon Resonance (SPR) binding kinetics The”, “12, 17 & 18)” for “12)”

CXCL12 [10] = molecular target: T5, CXCL12; assay: Surface Plasmon Resonance (SPR) binding kinetics; conditions: compound immobilized on CM5 chip, 25° C., 1:1 model
Description: as §2, §3, §4
as §3, with “The” for “Surface Plasmon Resonance (SPR) binding kinetics The”, “12, 17 & 18)” for “12)”

CCL2 [11] = molecular target: T8, CCL2; assay: Surface Plasmon Resonance (SPR) binding kinetics; conditions: compound immobilized on CM5 chip, 25° C., 1:1 model
Description: as §2, §3, §4
as §3, with “The” for “Surface Plasmon Resonance (SPR) binding kinetics The”, “12, 17 & 18)” for “12)”

CCL7 [12] = molecular target: T6, CCL7; assay: Surface Plasmon Resonance (SPR) binding kinetics; conditions: compound immobilized on CM5 chip, 25° C., 1:1 model
Description: as §2, §3, §4
as §3, with “The” for “Surface Plasmon Resonance (SPR) binding kinetics The”, “12, 17 & 18)” for “12)”

| SMILES | mean rank binding to CXCL8 (CXCL8 [1]) | mean rank binding to CCL5 (CCL5 [2]) | mean rank binding to CCL28 (CCL28) | mean rank binding to CXCL10 (CXCL10 [3]) | mean rank binding to CXCL12 (CXCL12 [4]) | mean rank binding to CCL7 (CCL7 [5]) | mean rank binding to CCL13 (CCL13) | mean rank binding to CCL21 (CCL21) | mean rank binding to CCL2 (CCL2 [6]) | Kd (CXCL8 [7]) | Koff (CXCL8 [7]) | Kon (CXCL8 [7]) | Kd (CCL5 [8]) | Koff (CCL5 [8]) | Kon (CCL5 [8]) | Kd (CXCL10 [9]) | Koff (CXCL10 [9]) | Kon (CXCL10 [9]) | Koff (CCL2 [11]) | Kon (CCL2 [11]) | other results |
| --- | --- | --- | --- | --- | --- | --- | --- | --- | --- | --- | --- | --- | --- | --- | --- | --- | --- | --- | --- | --- | --- |
| NCCOCCO[C@@H]1O[C@@H](C(=O)O)[C@@H](O[C@@H]2O[C@@H](C(=O)O)[C@@H](O[C@@H]3O[C@@H](C(=O)O)[C@@H](O[C@@H]4O[C@@H](C(=O)O)[C@@H](OS(=O)(=O)O)[C@H](O)[C@H]4OS(=O)(=O)O)[C@H](O)[C@H]3OS(=O)(=O)O)[C@H](O)[C@H]2OS(=O)(=O)O)[C@H](O)[C@H]1OS(=O)(=O)O [Example 12, Ethoxy-2-aminoethoxyl-O-((2-4-O-disulfonato)-α-L-idopyranosyl Uronic Acid-α(1->4)(2-O-sulfonato)-α-L-idopyranosyl Uronic Acid-α(1→4)(2-O-sulfonato)-α-L-idopyranosyl Uronic Acid-α(1→4)(2-O-sulfonato))-α-L-idopyranoside Uronic Acid] | 96% | 91% | 72% | 87% | 91% | 80% | 70% | 50% | 88% | 9.34 ± 0.21 µM | 2.96 ± 0.1 × 10^−1 S^−1 | 3.16 ± 0.08 × 10^5 M^−1S^−1 | 5.72 ± 0.24 µM | 2.4 ± 0.38 × 10^−1 S^−1 | 4.2 ± 0.46 × 10^4 M^−1S^−1 | 15.3 ± 0.21 µM | 2.2 ± 0.38 × 10^−1 S^−1 | 1.44 ± 0.46 × 10^4 M^−1S^−1 | 2.1 ± 0.5 × 10^−1 S^−1 | 1.26 ± 0.08 × 10^5 M^−1S^−1 | Kd (CXCL12 [10]): 18.8 ± 0.44 µM; Koff (CXCL12 [10]): 2.1 ± 0.78 × 10^−1 S^−1; Kon (CXCL12 [10]): 1.1 ± 0.46 × 10^4 M^−1S^−1; Kd (CCL2 [11]): 1.67 ± 0.3 µM |
| NCCCO[C@@H]1O[C@@H](C(=O)O)[C@@H](O[C@H]2O[C@H](COS(=O)(=O)O)[C@@H](O[C@@H]3O[C@@H](C(=O)O)[C@@H](O[C@H]4O[C@H](COS(=O)(=O)O)[C@@H](O)[C@H](OS(=O)(=O)O)[C@H]4N)[C@H](O)[C@H]3O)[C@H](OS(=O)(=O)O)[C@H]2N)[C@H](O)[C@H]1O [Example 17, 3-Aminopropyl-O-[(2-amino-6-O-sulfonato-3-O-sulfonato-2-deoxy-α-D-glucopyranosyl)-(1→4)-O-(α-L-idopyranosyluronate)-(1→4)-O-(2-amino-6-O-sulfonato-3-O-sulfonato-2-deoxy-α-D-glucopyranosyl)]-(1→4)-O-α-L-idopyranosiduronate] | 94% | 82% | 54% | 96% | 80% | 89% | 69% | 73% | 95% | 11.7 ± 0.17 µM | 2.18 ± 0.28 × 10^−1 S^−1 | 1.87 ± 0.22 × 10^4 M^−1S^−1 | 6.81 ± 0.33 µM | 2.98 ± 0.31 × 10^−1 S^−1 | 4.37 ± 0.31 × 10^4 M^−1S^−1 | 11 ± 0.37 µM | 1.69 ± 0.33 × 10^−1 S^−1 | 1.53 ± 0.26 × 10^4 M^−1S^−1 | 2.11 ± 0.34 × 10^−1 S^−1 | 11.17 ± 0.32 × 10^4 M^−1S^−1 | Kd (CCL7 [12]): 11.3 ± 0.18 µM; Koff (CCL7 [12]): 2.86 ± 0.21 × 10^−1 S^−1; Kon (CCL7 [12]): 2.53 ± 0.15 × 10^4 M^−1S^−1 |
| NCCCO[C@@H]1OC(C(=O)O)[C@@H](O[C@H]2OC(COS(=O)(=O)O)[C@@H](O[C@@H]3OC(C(=O)O)[C@@H](O[C@H]4OC(COS(=O)(=O)O)[C@@H](O)C(O)C4N)C(O)C3OS(=O)(=O)O)C(O)C2N)C(O)C1OS(=O)(=O)O (stereo partly drawn) [Example 19, 3-Aminopropyl-O-[(2-amino-6-O-sulfonato-2-deoxy-α-D-glucopyranosyl)-(1→4)-O-(2-O-sulfonato-α-L-idopyranosyluronate)-(1→4)-O-(2-amino-6-O-sulfonato-2-deoxy-α-D-glucopyranosyl)]-(1→4)-O-2-O-sulfonato-α-L-idopyranosiduronate] | 79% | 95% | 79% | 89% | 79% | 91% | 74% | 66% | 80% | 15.9 ± 0.23 µM | 1.96 ± 0.29 × 10^−1 S^−1 | 1.23 ± 0.17 × 10^4 M^−1S^−1 | – | 2.14 ± 0.48 × 10^−1 S^−1 | 9.15 ± 0.34 × 10^4 M^−1S^−1 | 10.7 ± 0.37 µM | 2.24 ± 0.35 × 10^−1 S^−1 | 2.07 ± 0.26 × 10^4 M^−1S^−1 | 2.03 ± 0.17 × 10^−1 S^−1 | 2.07 ± 0.13 × 10^4 M^−1S^−1 | Kd (CCL7 [12]): 11.5 ± 0.17 µM; Koff (CCL7 [12]): 2.25 ± 0.29 × 10^−1 S^−1; Kon (CCL7 [12]): 1.96 ± 0.22 × 10^4 M^−1S^−1; Kd (CCL2 [11]): 9.82 ± 0.18 µM |
| CC(=O)N[C@H]1[C@@H](O[C@H]2[C@H](O)[C@@H](O)[C@H](OCCCN)O[C@H]2C(=O)O)O[C@H](COP(=O)(O)O)[C@@H](O[C@@H]2O[C@@H](C(=O)O)[C@@H](O[C@H]3O[C@H](COP(=O)(O)O)[C@@H](O)[C@H](O)[C@H]3NC(C)=O)[C@H](O)[C@H]2O)[C@@H]1O [Example 26] | 10% | 5% | 39% | 48% | 75% | 40% | 70% | 81% | 1% | – | – | – | – | – | – | – | – | – | – | – | – |
